Results as given in patent publication US9120762B2, “Salts of bicyclo-substituted pyrazolon azo derivatives, preparation method and use thereof” (Jiangsu Hengrui Medicine Co., Ltd., priority 2009, dated 2015).
pEC50: −log10 of the molar value. Like-named read-outs stand apart in the source and are kept apart here.

Legend:
[1] = Solubility assay in water, 0.1% hydrochloric acid and methanol; assay type: physicochemical; settings: read-out: solubility
How it was run: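 Solubility was classed by the solvent volume needed to dissolve 1 g (mL) of solute, from "very soluble" (<1 mL) to "practically insoluble" (not fully dissolved in 10000 mL).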

human TPOR = target: T1, human TPOR (Homo sapiens, UniProt P40238); assay: Proliferation effect on BAF3-TPOR cell (CCK-8); assay type: cell-based; settings: rate relative to rhTPO positive control
T1 construct: host or cells: BaF3 (murine pro-B cells), stably transfected, G418-selected
T1 sequence (P40238 26-635): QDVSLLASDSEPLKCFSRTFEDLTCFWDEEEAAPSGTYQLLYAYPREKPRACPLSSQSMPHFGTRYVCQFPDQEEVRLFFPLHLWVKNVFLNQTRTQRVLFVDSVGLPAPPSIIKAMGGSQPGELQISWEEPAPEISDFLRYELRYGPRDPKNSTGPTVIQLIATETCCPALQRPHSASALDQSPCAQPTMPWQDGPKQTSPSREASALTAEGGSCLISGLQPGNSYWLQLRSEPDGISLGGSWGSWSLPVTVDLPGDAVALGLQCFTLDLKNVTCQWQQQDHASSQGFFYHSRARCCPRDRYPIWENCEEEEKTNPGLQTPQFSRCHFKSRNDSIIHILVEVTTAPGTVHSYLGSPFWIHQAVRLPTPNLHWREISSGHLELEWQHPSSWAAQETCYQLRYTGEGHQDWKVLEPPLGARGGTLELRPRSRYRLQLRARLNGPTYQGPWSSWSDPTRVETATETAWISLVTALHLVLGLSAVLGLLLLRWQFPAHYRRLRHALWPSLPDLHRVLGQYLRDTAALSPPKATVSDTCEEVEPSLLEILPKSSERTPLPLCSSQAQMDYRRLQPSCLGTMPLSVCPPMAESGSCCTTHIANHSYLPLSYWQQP
How it was run: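 BaF3 cells stably expressing dual-site-mutated human TPOR were washed free of IL-3 and plated at 100,000 cells/mL with test solutions of 0.001–30 μM, then incubated 24 h at 37 °C. After a further 24 h with CCK-8, OD450 was read. Proliferation = (S−B)/(P−B) against a rhTPO control, fitted for EC50.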

[2] = 0.1% hydrochloric acid, simulated gastric fluid, 0.1% hydrochloric acid

| Structure (SMILES) | solubility [1, 2] [µg/mL] | solubility ([1]; methanol, organic solvent or mixture, methanol) [µg/mL] | solubility ([1]; water) [µg/mL] | pEC50 (human TPOR) |
| --- | --- | --- | --- | --- |
| CC1=NN(c2ccc3c(c2)CCCC3)C(=O)/C1=N\Nc1cccc(-c2ccc(C(=O)O)o2)c1O.NCCO.NCCO [Example 7, (Z)-5-(2-hydroxy-3-{N′-[3-methyl-5-oxo-1-(5,6,7,8-tetrahydro-naphthalen-2-yl)-1,5-dihydro-pyrazol-4-ylidene]-hydrazino}-phenyl)-furan-2-carboxylic acid bis-(ethanolamine)] | 29 | 22400 | 3960 | 7.72 |
| CC1=NN(c2ccc3c(c2)CCCC3)C(=O)/C1=N\Nc1cccc(-c2ccc(C(=O)O)o2)c1O [Example 8, (Z)-5-(2-hydroxy-3-{N′-[3-methyl-5-oxo-1-(5,6,7,8-tetrahydro-naphthalen-2-yl)-1,5-dihydro-pyrazol-4-ylidene]-hydrazino}-phenyl)-furan-2-carboxylic acid bis-(choline)] | < 1 |  |  | 8.36 |
| CC1=NN(c2ccc3c(c2)CCCC3)C(=O)/C1=N\Nc1cccc(-c2ccc(C(=O)O)o2)c1O [Example 12, (Z)-5-(2-hydroxy-3-{N′-[3-methyl-5-oxo-1-(5,6,7,8-tetrahydro-naphthalen-2-yl)-1,5-dihydro-pyrazol-4-ylidene]-hydrazino}-phenyl)-furan-2-carboxylic acid bis-(trometamol)] |  |  |  | 7.85 |
